What was measured:
[1] = molecular target: T1, α2δ subunit derived from porcine brain tissue (Sus scrofa, UniProt A0A287BIN3); conditions: [3H]gabapentin radioligand; compounds of WO0128978 (prior application); cited from earlier work
T1 construct: the α2δ subunit derived from porcine brain tissue; from tissue; host or cells: porcine brain tissue

[2] = molecular target: T1, α2δ subunit derived from porcine brain tissue; experiment: radioligand binding assay using [3H]gabapentin and the α2δ subunit; conditions: [3H]gabapentin radioligand binding assay described herein
Source text: wherein n is an integer of from 1 to 4, where there are stereocentres, each center may be independently R or S, preferred compounds being those of Formulae I-IV above in which n is an integer of from 2 to 4. The compounds are disclosed as being useful in treating a variety of disorders including epilepsy, faintness attacks, hypokinesia, cranial disorders, neurodegenerative disorders, depression, anxiety, panic, pain, neuropathological disorders, and sleep disorders. Certain of the compounds disclosed in that patent have high activity as measured in a radioligand binding assay using [^3H]gabapentin and the α2δ subunit derived from porcine brain tissue (Gee N. S., Brown J. P., Dissanayake V. U. K., Offord J., Thurlow R., Woodruff G. N., J. Biol. Chem., 1996;271:[…]). Results for some of the compounds are set out in the following table:
The biological activity of the compounds of the invention may be measured in a radioligand binding assay using [^3H]gabapentin and the α2δ subunit derived from porcine brain tissue (Gee N. S., Brown J. P., Dissanayake V. U. K., Offord J., Thurlow R., Woodruff G. N., ADVANCEADVANCE J. Biol. Chem., 1996;271:5879-[…]). Results may be expressed in terms of μM or nM α2δ binding affinity.

T1 sequence (A0A287BIN3 entry or part of it): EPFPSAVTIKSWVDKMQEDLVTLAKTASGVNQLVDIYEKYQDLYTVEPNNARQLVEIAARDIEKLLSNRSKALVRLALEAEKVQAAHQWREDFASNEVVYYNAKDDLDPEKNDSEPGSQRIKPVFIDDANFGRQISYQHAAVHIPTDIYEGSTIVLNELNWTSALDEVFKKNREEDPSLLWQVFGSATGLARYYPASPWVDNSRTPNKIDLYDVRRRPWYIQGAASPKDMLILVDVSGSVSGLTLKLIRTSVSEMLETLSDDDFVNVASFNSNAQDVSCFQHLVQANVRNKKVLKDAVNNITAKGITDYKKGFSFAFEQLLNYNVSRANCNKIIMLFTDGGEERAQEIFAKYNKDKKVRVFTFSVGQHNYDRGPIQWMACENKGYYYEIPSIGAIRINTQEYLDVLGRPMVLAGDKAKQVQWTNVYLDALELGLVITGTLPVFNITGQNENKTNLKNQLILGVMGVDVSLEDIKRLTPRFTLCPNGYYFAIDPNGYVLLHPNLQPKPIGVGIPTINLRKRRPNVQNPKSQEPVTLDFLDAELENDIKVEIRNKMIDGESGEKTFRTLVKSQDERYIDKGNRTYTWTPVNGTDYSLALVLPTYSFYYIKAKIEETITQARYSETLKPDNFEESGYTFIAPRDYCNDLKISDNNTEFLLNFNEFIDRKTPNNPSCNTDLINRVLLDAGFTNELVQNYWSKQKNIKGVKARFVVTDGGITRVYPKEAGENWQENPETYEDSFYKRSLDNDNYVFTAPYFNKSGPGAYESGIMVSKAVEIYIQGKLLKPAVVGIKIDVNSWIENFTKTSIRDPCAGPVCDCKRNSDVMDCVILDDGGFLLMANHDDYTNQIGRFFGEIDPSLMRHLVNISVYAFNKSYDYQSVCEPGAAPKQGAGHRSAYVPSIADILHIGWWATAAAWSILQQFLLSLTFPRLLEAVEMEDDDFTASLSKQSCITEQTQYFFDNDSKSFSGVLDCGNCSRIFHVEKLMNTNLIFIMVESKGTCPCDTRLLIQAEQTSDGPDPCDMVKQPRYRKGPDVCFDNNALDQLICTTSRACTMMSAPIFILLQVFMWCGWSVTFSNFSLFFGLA

## NCC1(CC(=O)O)C[C@H]2CC[C@@H]2C1 (racemic) [(+/−)-(1α, 5β)(3-Aminomethyl-bicyclo[3.2.0]hept-3-yl)-acetic acid]
[1]
  α2δ binding affinity: 2.86 µM

## NC[C@]1(CC(=O)O)C[C@H]2CC[C@H]2C1 [(1α, 3α, 5α)(3-Aminomethyl-bicyclo[3.2.0]hept-3-yl)-acetic acid]
[1]
  α2δ binding affinity: 0.038 µM

## NC[C@@]1(CC(=O)O)C[C@H]2CC[C@H]2C1 [((1α, 3β, 5α)(3-Aminomethyl-bicyclo[3.2.0]hept-3-yl)-acetic acid]
[1]
  α2δ binding affinity: 0.332 µM

## Cl.NC[C@]1(CC(=O)O)C[C@H]2CCC[C@H]21 [Example 1, [(1R,5R,6S)-6-(Aminomethyl)bicyclo[3.2.0]hept-6-yl]acetic acid hydrochloride]
other
  melting point: 198 °C
[2]
  binding affinities: 46.8 nM

## Cl.NC[C@]1(CC(=O)O)C[C@H]2CCCC[C@H]21 [Example 4, [(1R,6R,7S)-7-(Aminomethyl)bicyclo[4.2.0]oct-7-yl]acetic acid hydrochloride]
[2]
  binding affinities: 600 nM
